Laboratory results as given in the supplement of paper PMC4862054.

What was measured:
Conditions in all cases: incubation time: 72 h
[1] = tested on: HCC1599; test: normalised response (% of control), CellTox Green; higher = less cell death (100 = DMSO, 0 = benzethonium chloride kill control)
Outline: (§1)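 For each plate, 0.1 % DMSO was set to 100 and a positive kill control to 0. Breast cancer cell lines (20 µl suspension) were seeded into 384-well plates already holding compound at 5 concentrations in 10-fold steps over a 10,000-fold range chosen per compound, and incubated for 72 h. CellTox Green fluorescence at 485/520 nm was read before CellTiter-Glo luminescence, which followed 10 min at room temperature. Each value is the normalised signal at one concentration.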

[2] = tested on: MFM-223; test: as above
Outline: as §1

[3] = tested on: MDA-MB-468; test: as above
Outline: as §1

[4] = tested on: DU-4475; test: as above
Outline: as §1

[5] = tested on: HCC1937; test: as above
Outline: as §1

[6] = tested on: HDQ-P1; test: as above
Outline: as §1

[7] = tested on: MCF-10A; test: as above
Outline: as §1

[8] = tested on: BT-549; test: as above
Outline: as §1

[9] = tested on: MDA-MB-453; test: as above
Outline: as §1

[10] = tested on: MDA-MB-231; test: as above
Outline: as §1

[11] = tested on: Hs578T; test: as above
Outline: as §1

[12] = tested on: CAL-51; test: as above
Outline: as §1

[13] = tested on: CAL-148; test: as above
Outline: as §1

[14] = tested on: HCC1143; test: as above
Outline: as §1

[15] = tested on: MDA-MB-436; test: as above
Outline: as §1

[16] = tested on: CAL-120; test: as above
Outline: as §1

[17] = tested on: BT-474; test: as above
Outline: as §1

[18] = tested on: CAL-85-1; test: as above
Outline: as §1

[19] = tested on: HCC1599; test: normalised response (% of control), CellTiter-Glo; higher = more viable cells (100 = DMSO, 0 = benzethonium chloride kill control)
Outline: as §1

[20] = tested on: MFM-223; test: as above
Outline: as §1

[21] = tested on: SK-BR-3; test: as above
Outline: as §1

[22] = tested on: MDA-MB-468; test: as above
Outline: as §1

[23] = tested on: DU-4475; test: as above
Outline: as §1

[24] = tested on: HCC1937; test: as above
Outline: as §1

[25] = tested on: HDQ-P1; test: as above
Outline: as §1

[26] = tested on: MCF-10A; test: as above
Outline: as §1

[27] = tested on: BT-549; test: as above
Outline: as §1

[28] = tested on: MDA-MB-453; test: as above
Outline: as §1

[29] = tested on: MDA-MB-231; test: as above
Outline: as §1

[30] = tested on: Hs578T; test: as above
Outline: as §1

[31] = tested on: CAL-51; test: as above
Outline: as §1

[32] = tested on: CAL-148; test: as above
Outline: as §1

[33] = tested on: HCC1143; test: as above
Outline: as §1

[34] = tested on: MDA-MB-436; test: as above
Outline: as §1

[35] = tested on: CAL-120; test: as above
Outline: as §1

[36] = tested on: BT-474; test: as above
Outline: as §1

[37] = tested on: CAL-85-1; test: as above
Outline: as §1

Q: How did the normalised response [1] turn out when C/C(=C\c1csc(C)n1)[C@@H]1C[C@@H]2O[C@]2(C)CCC[C@H](C)[C@H](O)[C@@H](C)C(=O)C(C)(C)[C@@H](O)CC(=O)N1 [Ixabepilone] (10 nM) was run?
A: 101%

Q: And the normalised response [2]?
A: 95.7%

Q: And the normalised response [3]?
A: 123%

Q: And the normalised response [4]?
A: 104%

Q: And the normalised response [5]?
A: 107%

Q: And the normalised response [6]?
A: 101%

Q: And the normalised response [7]?
A: 84.4%

Q: What about the normalised response [8] of the same compound?
A: 82.4%

Q: What about the normalised response [9] of the same compound?
A: 93.6%

Q: And the normalised response [10]?
A: 102%

Q: And the normalised response [11]?
A: 84%

Q: And the normalised response [12]?
A: 102%

Q: And the normalised response [13]?
A: 94.7%

Q: What about the normalised response [14] of the same compound?
A: 80.8%

Q: What about the normalised response [15] of the same compound?
A: 86.6%

Q: What about the normalised response [16] of the same compound?
A: 102%

Q: And the normalised response [17]?
A: 98.7%

Q: And the normalised response [18]?
A: 99%

Q: And the normalised response [19]?
A: 95.2%

Q: And the normalised response [20]?
A: 105%

Q: And the normalised response [21]?
A: 113%

Q: What about the normalised response [22] of the same compound?
A: 93.7%

Q: What about the normalised response [23] of the same compound?
A: 104%

Q: And the normalised response [24]?
A: 95.4%

Q: And the normalised response [25]?
A: 102%

Q: And the normalised response [26]?
A: 108%

Q: What about the normalised response [27] of the same compound?
A: 102%

Q: What about the normalised response [28] of the same compound?
A: 101%

Q: And the normalised response [29]?
A: 98.6%

Q: And the normalised response [30]?
A: 107%

Q: What about the normalised response [31] of the same compound?
A: 86%

Q: What about the normalised response [32] of the same compound?
A: 102%

Q: What about the normalised response [33] of the same compound?
A: 102%

Q: What about the normalised response [34] of the same compound?
A: 106%

Q: And the normalised response [35]?
A: 102%

Q: And the normalised response [36]?
A: 100%

Q: And the normalised response [37]?
A: 97.5%

Q: How did the normalised response [1] turn out when CN(C)C(=N)NC(=N)N [Metformin] (1000 nM) was run?
A: 95.2%

Q: What about the normalised response [2] of the same compound?
A: 101%

Q: And the normalised response [3]?
A: 61%

Q: And the normalised response [4]?
A: 91.6%

Q: What about the normalised response [5] of the same compound?
A: 93.4%

Q: What about the normalised response [6] of the same compound?
A: 70.7%

Q: And the normalised response [7]?
A: -3.22%

Q: What about the normalised response [8] of the same compound?
A: 70.4%

Q: What about the normalised response [9] of the same compound?
A: 91%

Q: What about the normalised response [10] of the same compound?
A: 63.5%

Q: What about the normalised response [11] of the same compound?
A: 105%

Q: And the normalised response [12]?
A: 71.1%

Q: And the normalised response [13]?
A: 95.7%

Q: What about the normalised response [14] of the same compound?
A: 85.4%

Q: And the normalised response [15]?
A: 71.8%

Q: And the normalised response [16]?
A: 96.5%

Q: And the normalised response [17]?
A: 92%

Q: What about the normalised response [18] of the same compound?
A: 97.9%

Q: And the normalised response [19]?
A: 95.9%

Q: And the normalised response [20]?
A: 83.2%

Q: And the normalised response [21]?
A: 81.9%

Q: And the normalised response [22]?
A: 90.3%

Q: And the normalised response [23]?
A: 88.4%

Q: And the normalised response [24]?
A: 93.2%

Q: What about the normalised response [25] of the same compound?
A: 98%

Q: And the normalised response [26]?
A: 77%

Q: What about the normalised response [27] of the same compound?
A: 103%

Q: What about the normalised response [28] of the same compound?
A: 84.3%

Q: What about the normalised response [29] of the same compound?
A: 94.1%

Q: And the normalised response [30]?
A: 102%

Q: What about the normalised response [31] of the same compound?
A: 65.9%

Q: What about the normalised response [32] of the same compound?
A: 102%

Q: What about the normalised response [33] of the same compound?
A: 102%

Q: What about the normalised response [34] of the same compound?
A: 108%

Q: What about the normalised response [35] of the same compound?
A: 104%

Q: And the normalised response [36]?
A: 96.3%

Q: What about the normalised response [37] of the same compound?
A: 97.7%

Q: Which normalised response [1] does the source give for CN(Cc1cnc2nc(N)nc(N)c2n1)c1ccc(C(=O)N[C@@H](CCC(=O)O)C(=O)O)cc1 [Methotrexate] (500 nM) here?
A: 102%

Q: What about the normalised response [2] of the same compound?
A: 101%

Q: And the normalised response [3]?
A: 118%

Q: And the normalised response [4]?
A: 105%

Q: And the normalised response [5]?
A: 112%

Q: And the normalised response [6]?
A: 102%

Q: What about the normalised response [7] of the same compound?
A: 96.5%

Q: And the normalised response [8]?
A: 99.2%

Q: And the normalised response [9]?
A: 106%

Q: And the normalised response [10]?
A: 84.1%

Q: And the normalised response [11]?
A: 87.8%

Q: What about the normalised response [12] of the same compound?
A: 104%

Q: And the normalised response [13]?
A: 102%

Q: And the normalised response [14]?
A: 114%

Q: And the normalised response [15]?
A: 105%

Q: And the normalised response [16]?
A: 100%

Q: What about the normalised response [17] of the same compound?
A: 102%

Q: What about the normalised response [18] of the same compound?
A: 98.4%

Q: And the normalised response [19]?
A: 118%

Q: And the normalised response [20]?
A: 105%

Q: And the normalised response [21]?
A: 108%

Q: What about the normalised response [22] of the same compound?
A: 101%

Q: What about the normalised response [23] of the same compound?
A: 105%

Q: And the normalised response [24]?
A: 27.3%

Q: And the normalised response [25]?
A: 57%

Q: And the normalised response [26]?
A: 104%

Q: And the normalised response [27]?
A: 102%

Q: And the normalised response [28]?
A: 110%

Q: What about the normalised response [29] of the same compound?
A: 111%

Q: And the normalised response [30]?
A: 102%

Q: And the normalised response [31]?
A: 95.3%

Q: And the normalised response [32]?
A: 106%

Q: What about the normalised response [33] of the same compound?
A: 96.4%

Q: And the normalised response [34]?
A: 91.9%

Q: What about the normalised response [35] of the same compound?
A: 81.8%

Q: And the normalised response [36]?
A: 101%

Q: What about the normalised response [37] of the same compound?
A: 95.6%

Q: Which results are given for Cc1cn(-c2cc(NC(=O)c3ccc(C)c(Nc4nccc(-c5cccnc5)n4)c3)cc(C(F)(F)F)c2)cn1 [Nilotinib] (100 nM)?
A: normalised response [1]: 105%; normalised response [2]: 61.4%; normalised response [3]: 123%; normalised response [4]: 102%; normalised response [5]: 103%; normalised response [6]: 68.1%; normalised response [7]: 99.2%; normalised response [8]: 97.5%; normalised response [9]: 85.7%; normalised response [10]: 110%; normalised response [11]: 85.3%; normalised response [12]: 96.3%; normalised response [13]: 93.5%; normalised response [14]: 109%; normalised response [15]: 103%; normalised response [16]: 85.9%; normalised response [17]: 102%; normalised response [18]: 105%; normalised response [19]: 106%; normalised response [20]: 96%; normalised response [21]: 96.3%; normalised response [22]: 103%; normalised response [23]: 103%; normalised response [24]: 95.4%; normalised response [25]: 105%; normalised response [26]: 104%; normalised response [27]: 115%; normalised response [28]: 96.3%; normalised response [29]: 94.9%; normalised response [30]: 97.6%; normalised response [31]: 81.9%; normalised response [32]: 106%; normalised response [33]: 94.2%; normalised response [34]: 100%; normalised response [35]: 94.4%; normalised response [36]: 99%; normalised response [37]: 107%
